The source of these data is article PMC11647902, “Design, Synthesis, and Biological Evaluation of [1,2,5]Oxadiazolo[3,4-b]pyridin-7-ol as Mitochondrial Uncouplers for the Treatment of Obesity and Metabolic Dysfunction-Associated Steatohepatitis” (Journal of Medicinal Chemistry, 2024).

The test system of one data set is GAN mouse model of MASH. As to the kind of experiment: Gubra-Amylin NASH (GAN) diet mouse model of MASH. The class given is in vivo.
The test system of another data set is L6 myoblast cells. As to the kind of experiment: Mitochondrial stress test and self-limiting test (OCR). Conditions: L6 myoblasts.
The test system of a further data set is L6 rat myoblasts. Kind of data set: OCR Seahorse assay (oxygen consumption rate, mitochondrial uncoupling). The following applies: Rattus norvegicus.
A short description of the next data set: in vivo. Conditions: male, C57BL/6, mouse, plasma, po, 10 mg/kg.
On the set-up of data set [1]: method as in PMID 38629387. The following applies: STEP-1 clinical trials; cited from earlier work.
The mark [2] stands for this setting: 200 mg kg^–1 in GAN diet, 4 weeks.

Description for L6 rat myoblasts: With 7 and 9 derivatives in hand, we screened for mitochondrial uncoupling activity as a function of oxygen consumption rate (OCR). […] OCR was measured using an Agilent Seahorse XF24 or XFe96 Analyzer (Agilent Technologies, Santa Clara, CA). L6 myoblasts were seeded in a Seahorse 24 or 96-well tissue culture plate at a density of 3.5 × 10^4 cells/well. The cells were then allowed to adhere overnight. […] Compounds were injected during the assay, and OCR was measured using 2 min measurement periods. Cells were treated with a single drug concentration per well and measured over a 90 min period. Two wells were used per condition and, where applicable, results from multiple plates were averaged together. The first three measurements after injection for each concentration were averaged to produce a dose curve. […] AUC values were also calculated using the same software.
Description for in vivo: The exposure levels in plasma were determined by liquid chromatography/mass spectrometry (LC/MS) and half-life was calculated. […] Samples were processed at UNSW for liquid chromatography tandem mass spectrometry (LC–MS/MS) by protein precipitation into a mixture of acetonitrile/methanol solution (AcN-MeOH, 9:1). Seven μL of plasma was precipitated in 100 μL of AcN-MeOH, followed by centrifugation at 18,000g for 10 min and collection of the supernatant for analysis. […] Chromatographic separation was achieved using an ACUITY UPLC BEH, C18 column (Waters, WT186002350, USA). Mobile phase A consisted of 0.1% v/v formic acid in HLPC grade water, while mobile phase B consisted of 0.1% v/v formic acid in ACN. Electrospray ionization (ESI) was performed in negative mode. […] Pharmacokinetic properties were calculated using PKSolver add-in tool (Excel).

As usually defined, the EC50 is the concentration giving half of the maximal effect. Low values mean an effect from little substance, high ones a need for much substance. One may read the Cmax as the peak of the concentration-time curve. In general, half-life refers to how long it takes for the measured level to halve. A higher half-life goes with slow loss. In the case of `Oc1c(Nc2ccc(-c3cccc(Cl)c3)cc2)cnc2nonc12` [SHO1122147, 6-((3′-Chloro-[1,1′-biphenyl]-4-yl)amino)-[1,2,5]oxadiazolo[3,4-b]pyridin-7-ol], in the data set with GAN mouse model of MASH (200 mg kg^–1 admixed in GAN diet, 4 weeks), the “loss of body weight” value is recorded as 15.4%. In the data set with GAN mouse model of MASH (setting [2]), the “fat mass as percent of body weight (EchoMRI)” value is “lowering fat mass”, the “fat-free lean mass as percent of body weight (EchoMRI)” value was “increasing fat-free lean mass”, the liver mass result is “no significant change” and the liver triglycerides entry was “decreased”. In addition, the “plasma alanine aminotransferase (ALT)” value in the data set with GAN mouse model of MASH (setting [2]) was “decreased”. Besides, the fibrosis stage entry in the data set on GAN mouse model of MASH (200 mg kg^–1 in GAN diet, 4 weeks, compared to GAN controls) is given as “No changes”. Moreover, the MAFLD activity score result with GAN mouse model of MASH (200 mg kg^–1 in GAN diet, 4 weeks, primarily due to decreased hepatic steatosis) is listed as “significant decrease”. Besides, the caloric intake result in the data set with GAN mouse model of MASH (200 mg kg^–1 in GAN diet, food intake monitored daily) is “no significant changes”. In the data set on GAN mouse model of MASH (200 mg kg^–1 day^–1), the body temperature entry is “without changes in body temperature”. The “respiration (OCR) in self-limiting test” value in the data set with L6 myoblast cells (SHO1122147 10 μM, BAM15 1.1 μM) stood at 200%. In addition, the “OCR after blockade with oligomycin” value in the data set on L6 myoblast cells (oligomycin 1 μM, then SHO1122147 10 μM or BAM15 1.1 μM at t = 40 min) is “increased OCR”. The compound further yielded a concentration for a half-maximal effect (EC50) in the data set on L6 rat myoblasts (L6) of 3.6 ± 0.1 µM. The Emax at 200 µM with L6 rat myoblasts (L6, read-out: % of BAM15 OCR, L6 myoblasts, integrated area under OCR dose curve above baseline relative to BAM15 of same experiment, NA = No Activity, highest tested concentration 200 μM) was found to be 55%. Further, in “in vivo”, the Cmax at 24 h was determined as 35 µM and the half-life at 24 h was 2 ± 0.07 h.
For semaglutide, the “loss of lean mass” value in data set [1] is listed as “up to 40%”.
